Test results as given in publication PMC9259545, “Impact of poly-arginine peptides R18D and R18 on alteplase and tenecteplase thrombolysis in vitro, and neuroprotective stability to proteolysis” (Journal of Thrombosis and Thrombolysis, 2022).
Non-standard residues stand in square brackets, D forms with d. Residues, ends and D or L forms follow the SMILES beside them.

Columns and labels:
tPA = biological target: T1, tPA (Homo sapiens, UniProt P00750); assay: Halo clot thrombolysis assay, tPA thrombolysis of whole blood clots; format: biochemical; details: tPA 5 nM, 27.5% human plasma
T1 construct: purchased Boehringer Ingelheim, Germany 10 mg vial
Experimental: (§1) We utilised a high throughput 96-well plate thrombolysis assay (“halo clot assay”) based on the procedure developed by Bonnard et al.. To reduce assay components the halo thrombus formation procedure was modified by replacing the original thrombotic mixture consisting of recombinant tissue factor and synthetic phospholipids reconstituted in 30 mM calcium, with thrombin, and reducing the pro-thrombotic volume (i.e., thrombin) from 5 to 3 µL and blood volume from 25 to 12 µL. Another modification to simplify clot formation consisted of adding the thrombin (3 µL; 500 nM in saline) to one side of the well and 12 µL of blood to the opposite side of well, before using a heat stretched Pasteur pipette with sealed end to mix the two liquids together using 4 to 5 circular motions around the edge of the well (halo clot). The original methodology involved adding the 5 μL of the clotting mixture to the edge of the well, and then using a micropipette to slowly release the 25 μL of blood to the edge of the well while at the same time maintaining a circular motion. Plates were incubated in a humidified 37 °C incubator for 1 h before use in the thrombolysis assay.
(§2) The thrombolysis assay involved adding 30 µL of Tris buffer (50 mM Tris–HCl, 100 mM NaCl, pH 7.4) with or without peptide followed by 55 µL Tris buffer containing tPA or TNK (5 nM final concentration) and 50% human plasma (final plasma concentration during thrombolysis 27.5%). The final concentration of peptide during thrombolysis ranged from 0.25 to 16 µM (note: an intravenous dose of R18D at 350 nmol/kg, which is likely to be neuroprotective achieves a Cmax of 0.7–0.9 µM in healthy male and female rats; unpublished observation). […] Following the addition of tPA or TNK into the wells, clot lysis was monitored over a 1-h period at 37 °C using a plate reader (Cytation5, BioTek, USA) by measuring absorbance at 510 nm every 1 min immediately after orbital shaking (205 rpm for 5 s). Controls consisted of wells with no thrombin (100% clot lysis; L100%) and wells with no tPA or TNK (0% clot lysis; L0%). At the 1-h time point, the percentage of thrombolysis (%T) in tPA or TNK treated samples (LTX) was calculated by transforming absorbance values based on the formula: % T = (LTX) − (L0%)/(L100%) − (L0%) × 100. In addition, during the 1-h period of clot lysis lag time and maximal activity (also known as maximum velocity or Vmax) of the thrombolysis reaction were calculated. The lag time is defined as the time interval between the first absorbance reading (time = 0) and the line of maximum slope of the thrombolysis reaction. The maximal activity is calculated from the maximum slope over the time course of the assay and reflects the capacity of an enzyme to catalyse a reaction (i.e., thrombolysis), with higher values representing higher catalytic activity (i.e., tPA/TNK induced plasmin thrombolysis).
(§3) For each thrombolysis assay, replicates for control wells (L0% and L100%) and tPA or TNK only treated wells consisted of n = 4–8. Replicates for tPA or TNK and peptide treated wells consisted of n = 4. For data analysis and graphical representations of the results, data from three independent thrombolytic assays were pooled. Studies consisted of R18D, R18 and NA-1 examined at the 0.5, 1, 2, 4, 8 or 16 µM concentrations performed concurrently on the same 96-well plate, in respective order. In addition, since R18D is known to be resistant to plasmin degradation and appeared to have the most impact on tPA or TNK thrombolysis, a separate set of three independent assays were performed for this peptide alone at concentrations of 0.25, 0.5, 1, 2, 4, 8 or 16 µM. Furthermore, the second dose study with R18D provided the opportunity to include a lower concentration (0.25 µM) of the peptide and to provide comparative data when only one peptide was examined in the thrombolysis assay per 96-well plate as opposed to examining the three peptides concurrently on the same plate. […]

TNK = biological target: T2, TNK (Homo sapiens, UniProt P00750, H332A/K331A/N152Q/R333A/R334A/T138N); assay: Halo clot thrombolysis assay, TNK thrombolysis of whole blood clots; format: biochemical; details: TNK 5 nM, 27.5% human plasma
T2 construct: purchased Boehringer Ingelheim 50 mg vial
Experimental: as §1, §2, §3

[1] = concurrent study, 0.5-16 µM peptide
[2] = peptide 16 µM, concurrent study, 37 °C
[3] = separate dose study, R18D alone, 0.25-16 µM

T1 sequence (P00750 36-562): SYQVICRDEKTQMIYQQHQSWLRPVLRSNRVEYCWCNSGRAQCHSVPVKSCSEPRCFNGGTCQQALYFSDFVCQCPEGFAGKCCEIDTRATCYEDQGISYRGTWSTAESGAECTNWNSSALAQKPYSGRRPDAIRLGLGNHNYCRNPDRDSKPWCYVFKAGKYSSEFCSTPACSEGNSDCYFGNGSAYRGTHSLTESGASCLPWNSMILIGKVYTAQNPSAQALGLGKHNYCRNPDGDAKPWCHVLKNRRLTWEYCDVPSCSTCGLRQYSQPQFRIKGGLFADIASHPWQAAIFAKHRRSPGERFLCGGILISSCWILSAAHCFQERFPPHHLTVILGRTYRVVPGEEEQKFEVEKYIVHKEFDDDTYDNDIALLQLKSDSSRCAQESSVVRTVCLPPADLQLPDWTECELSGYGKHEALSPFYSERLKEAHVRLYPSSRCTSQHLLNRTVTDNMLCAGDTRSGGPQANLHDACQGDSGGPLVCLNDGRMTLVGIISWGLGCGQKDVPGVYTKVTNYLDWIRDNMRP
T2 sequence (P00750 36-562 T138N/N152Q/K331A/H332A/R333A/R334A): as the sequence (P00750 36-562) above, with T103N, N117Q, K296A, H297A, R298A, R299A counted along it

## N=C(N)NCCC[C@@H](N)C(=O)N[C@H](CCCNC(=N)N)C(=O)N[C@H](CCCNC(=N)N)C(=O)N[C@H](CCCNC(=N)N)C(=O)N[C@H](CCCNC(=N)N)C(=O)N[C@H](CCCNC(=N)N)C(=O)N[C@H](CCCNC(=N)N)C(=O)N[C@H](CCCNC(=N)N)C(=O)N[C@H](CCCNC(=N)N)C(=O)N[C@H](CCCNC(=N)N)C(=O)N[C@H](CCCNC(=N)N)C(=O)N[C@H](CCCNC(=N)N)C(=O)N[C@H](CCCNC(=N)N)C(=O)N[C@H](CCCNC(=N)N)C(=O)N[C@H](CCCNC(=N)N)C(=O)N[C@H](CCCNC(=N)N)C(=O)N[C@H](CCCNC(=N)N)C(=O)N[C@H](CCCNC(=N)N)C(=O)O [R18D] (H-[dR][dR][dR][dR][dR][dR][dR][dR][dR][dR][dR][dR][dR][dR][dR][dR][dR][dR]-OH)
tPA; [1]
  Effect on tPA thrombolysis maximal activity vs tPA control: did not significantly impact tPA thrombolysis maximal activity
tPA; [2]
  Increase in tPA lag time: 5.85 min
tPA; [3]
  Effect on tPA lag time vs tPA control: did not significantly affect tPA lag time at any concentration
  Effect on tPA thrombolysis maximal activity vs tPA control: did not significantly impact tPA thrombolysis maximal activity at any concentration
tPA; separate dose study, R18D alone, 0.25-16 µM, 37 °C, three independent assays
  Effect on percentage tPA thrombolysis at 1 h vs tPA control: did not inhibit tPA thrombolysis
tPA; three peptides concurrently on the same plate, 0.5-16 µM peptide, Tris pH 7.4, 37 °C, absorbance 510 nm, three independent assays pooled, n = 4, Dunnett's test
  Effect on percentage tPA thrombolysis at 1 h vs tPA control: did not significantly inhibit thrombolysis
TNK; [1]
  Effect on TNK thrombolysis maximal activity vs TNK control: did not significantly impact TNK thrombolysis maximal activity
TNK; peptide 4 µM, concurrent study, 37 °C
  Increase in TNK lag time: 6.64 min
TNK; peptide 4 µM, concurrent study, 37 °C, 1 h, p = 0.022
  Decrease in TNK thrombolysis: 9.35%
TNK; peptide 8 µM, concurrent study, 37 °C
  Increase in TNK lag time: 9.9 min
TNK; peptide 8 µM, concurrent study, 37 °C, 1 h, p = 0.044
  Decrease in TNK thrombolysis: 8.71%
TNK; [2]
  Increase in TNK lag time: 8.76 min
TNK; [3]
  Effect on TNK lag time vs TNK control: did not impact TNK lag time at any concentration
  Effect on TNK thrombolysis maximal activity vs TNK control: did not significantly impact TNK thrombolysis maximal activity at any concentration
TNK; separate dose study, R18D alone, 0.25-16 µM, 37 °C, 1 h
  Effect on percentage TNK thrombolysis at 1 h vs TNK control: did not inhibit TNK thrombolysis
